# Key:
# HSP47 = HSP47 (Homo sapiens (Human), UniProt P50454); assay: Evaluation of HSP47 activity (inhibition of collagen fibril formation, 340 nm); type: biochemical; details: for inhibition at 100 µM: HSP47 inhibition; for EC50: HSP47 9.45 μg/ml, collagen fibril formation, test compound 100 μM to 1 μM
# Experimental: Fibrils were formed by adding 180 ul of phosphate-buffered saline (PBS, pH 7.4) solution to 20 ul of collagen dissolved in acidic solution (collagen solution, UK), which was measured at a wavelength of 340 nm. HSP47 (GenScript US) was added at a concentration of 9.45 μg/ml to assess HSP47 activity as the degree to which it inhibits fibril formation. Test compound was added with concentrations of 100 μM to 1 μM and the inhibitory activity of HSP47 was calculated as a percentage or EC50.
# [1] = test system: MCP-1 (Monocyte chemoattractant protein-1) secretion; assay: Inhibition of MCP-1 secretion in LX-2 cells (ELISA); type: cell-based; details: Homo sapiens, TGF-beta 10 ng/ml, 30 to 1 μM test compound, 24 hours, read-out: LX-2 cell EC50 (MCP-1 secretion)
# Experimental: LX-2 cells, a hepatic stellate cell line, were cultured in 24-well tissue culture plates for 18 hours, followed by TGF-beta 10 ng/ml treatment, and then incubated with 30 to 1 μM of the test compound for 24 hours. The secreted MCP-1 protein in the cell culture medium was quantified using ELISA reagents (RnD, USA). The EC50 value was calculated from the quantitative value of MCP-1 resulting from the treatment of each test compound using prism software (Graphpad, ver 9.4 USA).
# LX-2 cells = assay: Sirius red assay, hepatic stellate cell fibrosis (TGF-beta treated LX-2); type: cell-based; details: Homo sapiens; for EC50: LX-2, collagen production, TGF-beta 10 ng/ml, 24 hours; for inhibition at 10 µM: LX-2 cells, collagen production
# Experimental: (§1) Liver stellate LX-2 (Elabscience C H), lung epithelial A549 (ATCC US), or skin KEL FIB (ATCC, US) cells were cultured in 24-well tissue culture plates for 18 hours, followed by TGF-beta 10 ng/ml treatment, and then incubated with test compound for 24 hours. Cells were washed with PBS, fixed with Bouin's solution, and washed twice with distilled water. The fixed cells were stained with Sirius red for 2 hours to observe cellular morphological changes, and then washed with 0.01 N HCl solution. Collagen-bound Sirius red was extracted with 0.1 N NaOH solution, which was then quantified at a wavelength of 570 nm. The inhibitory efficacy of each compound on collagen production was shown as a percentage or EC50.
# A549 cells = assay: Sirius red assay, lung epithelial cell fibrosis (TGF-beta treated A549); type: cell-based; details: Homo sapiens, collagen production
# Experimental: as §1
# Chain of HSP47 (P50454 19-418, species assumed): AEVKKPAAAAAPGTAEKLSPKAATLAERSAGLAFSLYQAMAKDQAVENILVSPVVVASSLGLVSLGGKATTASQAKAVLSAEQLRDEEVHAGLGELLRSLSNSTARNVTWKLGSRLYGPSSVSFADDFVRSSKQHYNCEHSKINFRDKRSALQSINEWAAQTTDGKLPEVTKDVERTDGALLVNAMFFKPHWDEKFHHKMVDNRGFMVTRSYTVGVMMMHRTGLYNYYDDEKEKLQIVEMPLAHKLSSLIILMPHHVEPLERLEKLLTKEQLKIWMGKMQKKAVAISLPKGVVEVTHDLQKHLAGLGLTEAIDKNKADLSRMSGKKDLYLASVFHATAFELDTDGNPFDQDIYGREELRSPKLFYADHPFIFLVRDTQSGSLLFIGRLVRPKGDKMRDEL
SMILES,inhibition at 100 µM (HSP47) [%],EC50 [1] [µM],EC50 (LX-2 cells) [µM],EC50 (HSP47) [µM],inhibition at 10 µM (LX-2 cells) [%],inhibition at 10 µM (A549 cells) [%],inhibition at 30 µM (A549 cells) [%]
"CCc1oc2cccc(Cl)c2c1C(=O)c1cc(Br)c(O)c(Br)c1 [Example 1, (4-chloro-2-ethylbenzofuran-3-yl)(3,5-dibromo-4-hydroxyphenyl)methanone]",23.3,4.61,3,,,,
"CCc1oc2ccc(C)cc2c1C(=O)c1cc(Br)c(O)c(Br)c1 [Example 2, (3,5-dibromo-4-hydroxyphenyl)(2-ethyl-5-methylbenzofuran-3-yl)methanone]",,,,40.8,65.1,,
"CCc1ccc2c(C(=O)c3cc(Br)c(O)c(Br)c3)c(CC)oc2c1 [Example 3, (3,5-dibromo-4-hydroxyphenyl)(2,6-diethylbenzofuran-3-yl)methanone]",26.3,2.21,1.37,,,,
"CCc1oc2c(C)cccc2c1C(=O)c1cc(Br)c(O)c(Br)c1 [Example 4, (3,5-dibromo-4-hydroxyphenyl)(2-ethyl-7-methylbenzofuran-3-yl)methanone]",,8.69,5.55,73,,,
"CCc1oc2c(Cl)cccc2c1C(=O)c1cc(Br)c(O)c(Br)c1 [Example 5, (7-chloro-2-ethylbenzofuran-3-yl)(3,5-dibromo-4-hydroxyphenyl)methanone]",,3.56,4.73,37.8,,,
"CCc1oc2c(Br)cccc2c1C(=O)c1cc(Br)c(O)c(Br)c1 [Example 6, (7-bromo-2-ethylbenzofuran-3-yl)(3,5-dibromo-4-hydroxyphenyl)methanone]",,10.2,17.1,80.8,,,
"CCc1oc2c(F)cccc2c1C(=O)c1cc(Br)c(O)c(Br)c1 [Example 7, (3,5-dibromo-4-hydroxyphenyl)(2-ethyl-7-fluorobenzofuran-3-yl)methanone]",18.1,2.85,10.9,,,,
"CCc1oc2ccc(C)cc2c1C(=O)c1cc(I)c(O)c(I)c1 [Example 8, (2-ethyl-5-methylbenzofuran-3-yl)(4-hydroxy-3,5-diiodophenyl)methanone]",,,,37.1,67.9,,
"CCc1oc2cc(C)ccc2c1C(=O)c1cc(I)c(O)c(I)c1 [Example 10, (2-ethyl-6-methylbenzofuran-3-yl)(4-hydroxy-3,5-diiodophenyl)methanone]",41.8,,,,128,,
"CCc1oc2cc(Br)ccc2c1C(=O)c1cc(I)c(O)c(I)c1 [Example 11, (6-bromo-2-ethylbenzofuran-3-yl)(4-hydroxy-3,5-diiodophenyl)methanone]",69.2,,,,78.3,,
"CCc1oc2c(C)cccc2c1C(=O)c1cc(I)c(O)c(I)c1 [Example 13, (2-ethyl-7-methylbenzofuran-3-yl)(4-hydroxy-3,5-diiodophenyl)methanone]",,,,49.1,,65.2,72.5
"CCc1oc2c(Cl)cccc2c1C(=O)c1cc(I)c(O)c(I)c1 [Example 14, (7-chloro-2-ethyl-3-yl)(4-hydroxy-3,5-diiodophenyl)methanone]",,,,,90.6,,
"CCc1oc2c(Br)cccc2c1C(=O)c1cc(I)c(O)c(I)c1 [Example 15, (7-bromo-2-ethylbenzofuran-3-yl)(4-hydroxy-3,5-diiodophenyl)methanone]",,,,48.3,,,96.2
"O=C(c1cc(Br)c(O)c(Br)c1)c1coc2ccccc12 [Example 16, benzofuran-3-yl(3,5-dibromo-4-hydroxyphenyl)methanone]",,,,31.4,,64.3,
"Cc1oc2cc(Br)ccc2c1C(=O)c1cc(Br)c(O)c(Br)c1 [Example 17, (6-bromo-2-methylbenzofuran-3-yl)(3,5-dibromo-4-hydroxyphenyl)methanone]",19.5,3.73,3.7,,,,
"Cc1oc2ccc(Br)cc2c1C(=O)c1cc(Br)c(O)c(Br)c1 [Example 18, (5-bromo-2-methylbenzofuran-3-yl)(3,5-dibromo-4-hydroxyphenyl)methanone]",75.2,3.01,4.67,,,,
"CCc1ccc2oc(CC)c(C(=O)c3cc(Br)c(O)c(Br)c3)c2c1 [Example 20, (3,5-dibromo-4-hydroxyphenyl)(2,5-diethylbenzofuran-3-yl)methanone]",,2.1,4.02,49.2,,,
"CCc1oc2c(CC)cccc2c1C(=O)c1cc(Br)c(O)c(Br)c1 [Example 21, (3,5-dibromo-4-hydroxyphenyl)(2,7-diethylbenzofuran-3-yl)methanone]",,2.8,3.07,5.52,,,
"CCc1oc2cccc(C)c2c1C(=O)c1cc(Br)c(O)c(Br)c1 [Example 23, (3,5-dibromo-4-hydroxyphenyl)(2-ethyl-4-methylbenzofuran-3-yl)methanone]",,,3.39,71,,,
"CCc1oc2cccc(F)c2c1C(=O)c1cc(Br)c(O)c(Br)c1 [Example 24, (3,5-dibromo-4-hydroxyphenyl)(2-ethyl-4-fluorobenzofuran-3-yl)methanone]",,,3.6,104,,,
